Test results reported in patent US8003698B2, “Site-specific inhibitors of histone methyltransferase (HMTASE) and process of preparation thereof” (Jawaharlal Nehru Centre for Advanced Scientific Research, priority 2006, dated 2011).
Like-named read-outs stand apart in the source and are kept apart here.

Key:
[1] = target: T1, arginine methyltransferase CARM1 (Homo sapiens, UniProt Q86X55); assay: Filterbinding and gel (fluorography) HMTase assay against CARM1; assay type: biochemical
T1 sequence (Q86X55 1-608): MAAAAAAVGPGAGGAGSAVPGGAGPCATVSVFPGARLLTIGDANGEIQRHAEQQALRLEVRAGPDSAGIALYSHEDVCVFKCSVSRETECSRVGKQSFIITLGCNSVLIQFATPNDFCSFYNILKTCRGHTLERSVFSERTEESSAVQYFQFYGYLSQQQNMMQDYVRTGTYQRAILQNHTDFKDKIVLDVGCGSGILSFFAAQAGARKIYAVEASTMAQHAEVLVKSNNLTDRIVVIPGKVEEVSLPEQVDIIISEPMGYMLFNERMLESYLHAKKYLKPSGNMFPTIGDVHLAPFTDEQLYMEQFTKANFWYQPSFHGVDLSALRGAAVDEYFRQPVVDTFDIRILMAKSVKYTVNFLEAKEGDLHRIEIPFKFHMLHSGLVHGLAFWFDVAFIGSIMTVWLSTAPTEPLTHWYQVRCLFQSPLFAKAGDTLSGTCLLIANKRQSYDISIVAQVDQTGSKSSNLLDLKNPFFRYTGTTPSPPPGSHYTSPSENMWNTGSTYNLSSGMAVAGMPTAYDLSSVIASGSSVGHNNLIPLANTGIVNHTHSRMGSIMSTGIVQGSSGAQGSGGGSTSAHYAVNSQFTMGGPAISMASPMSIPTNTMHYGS
Excerpt: (§1) FIG. 1a: Effect of LTK20 on Histone Modifying Enzymes (Filterbinding Assay) Filterbinding Assay of LTK20 carried out with the Histone acetyltransferases p300, PCAF and Histone methyltransferases CARM1, G9a. Lane 1—histones alone, lane 2—Enzyme control, lane 3—DMSO control, lane 4-5, LTK20 in increasing concentration.
(§2) FIG. 1b: Effect of LTK20 on Histone Modifying Enzymes (Fluorography) Gel Assay of LTK20 carried out with Histone acetyltransferases p300, PCAF and Histone methyltransferases CARM1, G9a. Lane 1—histones alone, lane 2—Enzyme control, lane 3—DMSO control, lane 4 & 5—LTK20 in increasing concentration.
(§3) (2,3,7,8-TETRAHYDROXY[1]BENZOPYRANO[5,4,3(DE)[1]BENZOPYRAN5,10-DIONE) was identified as a specific inhibitor of the arginine methyltransferase CARM1 with an IC50 of 20 μM, both by filterbinding (FIG. 1a) and fluorography assays (FIG. 1b).

[2] = target: T2, lysine methyltransferase G9a (Homo sapiens, UniProt Q96KQ7); assay: Filterbinding and gel (fluorography) HMTase assay against G9a; assay type: biochemical
T2 sequence (Q96KQ7 1-1210): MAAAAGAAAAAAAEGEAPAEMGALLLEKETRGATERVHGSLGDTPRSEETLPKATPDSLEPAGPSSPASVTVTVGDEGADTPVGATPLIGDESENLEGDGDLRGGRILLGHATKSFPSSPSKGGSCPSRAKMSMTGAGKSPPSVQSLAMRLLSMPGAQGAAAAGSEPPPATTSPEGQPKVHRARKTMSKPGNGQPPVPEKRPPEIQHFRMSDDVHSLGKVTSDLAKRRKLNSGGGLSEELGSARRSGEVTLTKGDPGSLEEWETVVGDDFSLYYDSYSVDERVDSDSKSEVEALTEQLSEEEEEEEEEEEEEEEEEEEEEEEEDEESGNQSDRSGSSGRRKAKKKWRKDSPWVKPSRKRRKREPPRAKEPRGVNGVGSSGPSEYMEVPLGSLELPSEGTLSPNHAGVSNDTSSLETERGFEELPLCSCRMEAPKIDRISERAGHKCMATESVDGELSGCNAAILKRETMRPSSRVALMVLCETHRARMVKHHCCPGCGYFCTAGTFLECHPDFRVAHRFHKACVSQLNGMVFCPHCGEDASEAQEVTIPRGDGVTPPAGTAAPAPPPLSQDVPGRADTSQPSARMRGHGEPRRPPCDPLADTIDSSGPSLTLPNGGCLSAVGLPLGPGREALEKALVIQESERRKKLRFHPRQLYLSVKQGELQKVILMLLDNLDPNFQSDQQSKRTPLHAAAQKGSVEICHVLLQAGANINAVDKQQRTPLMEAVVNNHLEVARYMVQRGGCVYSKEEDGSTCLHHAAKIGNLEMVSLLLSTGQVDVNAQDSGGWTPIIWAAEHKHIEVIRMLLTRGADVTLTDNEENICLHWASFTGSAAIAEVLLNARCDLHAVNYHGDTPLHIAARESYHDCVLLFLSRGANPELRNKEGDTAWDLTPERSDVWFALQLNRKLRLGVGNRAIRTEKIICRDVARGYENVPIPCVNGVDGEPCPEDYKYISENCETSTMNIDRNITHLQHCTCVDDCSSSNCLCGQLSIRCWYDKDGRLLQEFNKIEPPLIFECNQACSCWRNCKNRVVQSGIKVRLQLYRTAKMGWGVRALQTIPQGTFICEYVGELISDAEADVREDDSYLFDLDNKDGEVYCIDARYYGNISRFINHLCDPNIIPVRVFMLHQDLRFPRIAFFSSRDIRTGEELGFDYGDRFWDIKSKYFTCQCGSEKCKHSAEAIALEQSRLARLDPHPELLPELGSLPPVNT
Excerpt: as §1, §2, §3

[3] = target: histone acetyltransferase p300 (Homo sapiens, UniProt Q09472); assay: Filterbinding and gel (fluorography) HAT assay against p300; assay type: biochemical
Excerpt: as §1, §2, §3

[4] = target: histone acetyltransferase PCAF (Homo sapiens, UniProt Q92831); assay: Filterbinding and gel (fluorography) HAT assay against PCAF; assay type: biochemical
Excerpt: as §1, §2, §3

CARM1 [5] = target: T3, CARM1 (Homo sapiens, UniProt Q86X55); assay: Kinetic analysis of the pattern of inhibition of CARM1 methylation of histone H3; assay type: biochemical; details: recombinant histone H3 and tritiated SAM varied; two inhibitor concentrations
T3 sequence (Q86X55 1-608): T1 sequence (Q86X55 1-608)
Description: Since the inhibitor is specific to CARM1 mediated methylation of histones which is directed to the histone H3, histone H3 was used as the substrate for the kinetic analysis. Initially, the inhibition was confirmed using the recombinant histone as the substrate. CARM1 methylation reaction was carried out using increasing concentration of histone H3 and the methyl group donor, tritiated SAM keeping the enzyme concentration constant. Two different inhibitor concentrations were assayed.

histone H3 = histone H3 (Homo sapiens, UniProt P68431); assay: Isothermal Calorimetric Titration with substrate histone H3; assay type: binding; details: substrate in cell titrated against inhibitor
Excerpt: FIG. 2: Binding Isotherm of Histone H3 with LTK20 Isothermal Calorimetric Titration carried out with the protein histone H3 and the ligand LTK20, which is the inhibitor.
(§4) The pattern of inhibition is uncompetitive indicating the mode of inhibition is via the Enzyme-Substrate complex, the binding of the inhibitor has been characterized by Isothermal Calorimetric Titration wherein either the substrate (histone H3) or enzyme (CARM1) was taken in the cell and titrated against the inhibitor (2,3,7,8TETRAHYDROXY[1]BENZOPYRANO[5,4,3(DE)[1]BENZOPYRAN5,10-DIONE).

CARM1 [6] = target: T3, CARM1; assay: Isothermal Calorimetric Titration with enzyme CARM1; assay type: binding; details: enzyme in cell titrated against inhibitor
Excerpt: as §4

[7] = target: CARM1 methylation sites on histone H3, R17 and R26 (Homo sapiens, UniProt P68431); assay: In vitro CARM1 methylation reaction, western analysis with site-specific antibodies; assay type: biochemical
Description: (§5) FIGS. 3a and 3b: Preferential Inhibition of CARM1 Mediated Methylation Site-specific inhibition of arginine methylation of histone H3 observed in the presence of LTK20 both in vitro and in vivo. H3R17 and H3R26 are both CARM1 methylation sites on histone H3.
In vitro CARM1 methylation reaction was carried out in the presence or absence of inhibitors, and probed with antibodies against the specific CARM1 methylation sites on histone H3, R17 and R26.

[8] = system: CARM1 methylation sites on histone H3, R17 and R26 in HeLa cells; assay: HeLa cells, western analysis of acid extracted histones; assay type: cell-based; details: for Methylation of H3R17: 50 μM, 24 hours
Description: as §5
In vivo characterization was done by treating HeLa cells with the molecule at 50 μM concentration for a period of 24 hours, and the acid extracted histones were probed with antibodies against CARM1 methylation sites on histone H3, R17 and R26.

[9] = system: CARM1 methylation sites on histone H3, R17 and R26 in HeLa cells; assay: HeLa cells, immunofluorescence analysis; assay type: cell-based; details: 50 μM, 24 hours
Description: FIGS. 3c and 3d: Immunofluorescence Analysis of LTK20 Treated HeLa Cells
In vivo characterization was done by treating HeLa cells with the molecule at 50 μM concentration for a period of 24 hours, and the cells were probed with antibodies against CARM1 methylation sites on histone H3, R17 and R26 and were visualized by anti rabbit alexa fluor 488 antibody.

U2OS cells = assay: Modulation of p53 and p21 protein levels in U2OS cells by western analysis; assay type: cell-based; details: for p21 levels: UV irradiated U2OS cells, vs DMSO control
Excerpt: FIG. 4: Immunoblot Analysis with p21 Antibody UV irradiated U2OS cells treated with or without inhibitors. The lysate was probed with antibody against p21. p21 levels show an increase in the presence of LTK20 as compared to the DMSO control.
Physiological effect of the inhibitor was characterized by selecting the p53 system, since CARM1 mediated histone methylation is known to cooperatively enhance the transcriptional activation of p53 responsive genes. […] U2OS, which is a p53 positive cell line was used for the assay, and on treatment with molecule at 50 μM concentration for a period of 24 hours, p53 levels were altered. Since, the p53 responsive genes had to be assayed, p21 was selected (there is no apoptosis, therefore the apoptosis genes were not selected). UV irradiated cells were treated with (2,3,7,8-TETRAHYDROXY[1]BENZOPYRANO[5,4,3(DE)[1]BENZOPYRAN5,10-DIONE) for a period of 24 hours and the lysate was probed with antibody against p21. […] This clearly indicates a possible implication of this molecule in the tumor suppressor p53 mediated transcriptional activation.

[10] = filterbinding, HeLa core histones
[11] = listed as (2,3,7,8-TETRAHYDROXY[1]BENZOPYRANO[5,4,3(DE)[1]BENZOPYRAN5,10-DIONE)

Sequence of histone acetyltransferase PCAF (Q92831 whole entry): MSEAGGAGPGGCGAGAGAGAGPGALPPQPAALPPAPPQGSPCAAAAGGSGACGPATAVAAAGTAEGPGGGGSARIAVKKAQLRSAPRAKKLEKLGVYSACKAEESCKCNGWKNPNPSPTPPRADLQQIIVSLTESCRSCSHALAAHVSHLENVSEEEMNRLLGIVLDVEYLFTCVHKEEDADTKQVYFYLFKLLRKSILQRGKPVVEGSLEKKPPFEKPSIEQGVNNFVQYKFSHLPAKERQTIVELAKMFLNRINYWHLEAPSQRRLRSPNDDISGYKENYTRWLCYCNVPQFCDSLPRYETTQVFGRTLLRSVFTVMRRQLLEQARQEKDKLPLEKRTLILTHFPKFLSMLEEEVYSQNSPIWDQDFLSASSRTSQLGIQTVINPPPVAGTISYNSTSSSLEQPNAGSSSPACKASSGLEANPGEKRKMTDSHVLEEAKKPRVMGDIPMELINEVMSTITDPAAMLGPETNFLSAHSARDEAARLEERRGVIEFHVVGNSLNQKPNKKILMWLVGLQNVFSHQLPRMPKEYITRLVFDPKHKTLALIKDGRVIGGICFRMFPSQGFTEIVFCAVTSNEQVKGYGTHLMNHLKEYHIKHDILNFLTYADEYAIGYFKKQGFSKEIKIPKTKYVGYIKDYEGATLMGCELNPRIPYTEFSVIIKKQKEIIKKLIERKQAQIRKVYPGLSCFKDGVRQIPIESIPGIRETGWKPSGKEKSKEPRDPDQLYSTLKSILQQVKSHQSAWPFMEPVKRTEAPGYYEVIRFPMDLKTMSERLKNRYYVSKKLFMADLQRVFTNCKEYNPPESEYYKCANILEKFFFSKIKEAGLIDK
Sequence of histone acetyltransferase p300 (Q09472 whole entry): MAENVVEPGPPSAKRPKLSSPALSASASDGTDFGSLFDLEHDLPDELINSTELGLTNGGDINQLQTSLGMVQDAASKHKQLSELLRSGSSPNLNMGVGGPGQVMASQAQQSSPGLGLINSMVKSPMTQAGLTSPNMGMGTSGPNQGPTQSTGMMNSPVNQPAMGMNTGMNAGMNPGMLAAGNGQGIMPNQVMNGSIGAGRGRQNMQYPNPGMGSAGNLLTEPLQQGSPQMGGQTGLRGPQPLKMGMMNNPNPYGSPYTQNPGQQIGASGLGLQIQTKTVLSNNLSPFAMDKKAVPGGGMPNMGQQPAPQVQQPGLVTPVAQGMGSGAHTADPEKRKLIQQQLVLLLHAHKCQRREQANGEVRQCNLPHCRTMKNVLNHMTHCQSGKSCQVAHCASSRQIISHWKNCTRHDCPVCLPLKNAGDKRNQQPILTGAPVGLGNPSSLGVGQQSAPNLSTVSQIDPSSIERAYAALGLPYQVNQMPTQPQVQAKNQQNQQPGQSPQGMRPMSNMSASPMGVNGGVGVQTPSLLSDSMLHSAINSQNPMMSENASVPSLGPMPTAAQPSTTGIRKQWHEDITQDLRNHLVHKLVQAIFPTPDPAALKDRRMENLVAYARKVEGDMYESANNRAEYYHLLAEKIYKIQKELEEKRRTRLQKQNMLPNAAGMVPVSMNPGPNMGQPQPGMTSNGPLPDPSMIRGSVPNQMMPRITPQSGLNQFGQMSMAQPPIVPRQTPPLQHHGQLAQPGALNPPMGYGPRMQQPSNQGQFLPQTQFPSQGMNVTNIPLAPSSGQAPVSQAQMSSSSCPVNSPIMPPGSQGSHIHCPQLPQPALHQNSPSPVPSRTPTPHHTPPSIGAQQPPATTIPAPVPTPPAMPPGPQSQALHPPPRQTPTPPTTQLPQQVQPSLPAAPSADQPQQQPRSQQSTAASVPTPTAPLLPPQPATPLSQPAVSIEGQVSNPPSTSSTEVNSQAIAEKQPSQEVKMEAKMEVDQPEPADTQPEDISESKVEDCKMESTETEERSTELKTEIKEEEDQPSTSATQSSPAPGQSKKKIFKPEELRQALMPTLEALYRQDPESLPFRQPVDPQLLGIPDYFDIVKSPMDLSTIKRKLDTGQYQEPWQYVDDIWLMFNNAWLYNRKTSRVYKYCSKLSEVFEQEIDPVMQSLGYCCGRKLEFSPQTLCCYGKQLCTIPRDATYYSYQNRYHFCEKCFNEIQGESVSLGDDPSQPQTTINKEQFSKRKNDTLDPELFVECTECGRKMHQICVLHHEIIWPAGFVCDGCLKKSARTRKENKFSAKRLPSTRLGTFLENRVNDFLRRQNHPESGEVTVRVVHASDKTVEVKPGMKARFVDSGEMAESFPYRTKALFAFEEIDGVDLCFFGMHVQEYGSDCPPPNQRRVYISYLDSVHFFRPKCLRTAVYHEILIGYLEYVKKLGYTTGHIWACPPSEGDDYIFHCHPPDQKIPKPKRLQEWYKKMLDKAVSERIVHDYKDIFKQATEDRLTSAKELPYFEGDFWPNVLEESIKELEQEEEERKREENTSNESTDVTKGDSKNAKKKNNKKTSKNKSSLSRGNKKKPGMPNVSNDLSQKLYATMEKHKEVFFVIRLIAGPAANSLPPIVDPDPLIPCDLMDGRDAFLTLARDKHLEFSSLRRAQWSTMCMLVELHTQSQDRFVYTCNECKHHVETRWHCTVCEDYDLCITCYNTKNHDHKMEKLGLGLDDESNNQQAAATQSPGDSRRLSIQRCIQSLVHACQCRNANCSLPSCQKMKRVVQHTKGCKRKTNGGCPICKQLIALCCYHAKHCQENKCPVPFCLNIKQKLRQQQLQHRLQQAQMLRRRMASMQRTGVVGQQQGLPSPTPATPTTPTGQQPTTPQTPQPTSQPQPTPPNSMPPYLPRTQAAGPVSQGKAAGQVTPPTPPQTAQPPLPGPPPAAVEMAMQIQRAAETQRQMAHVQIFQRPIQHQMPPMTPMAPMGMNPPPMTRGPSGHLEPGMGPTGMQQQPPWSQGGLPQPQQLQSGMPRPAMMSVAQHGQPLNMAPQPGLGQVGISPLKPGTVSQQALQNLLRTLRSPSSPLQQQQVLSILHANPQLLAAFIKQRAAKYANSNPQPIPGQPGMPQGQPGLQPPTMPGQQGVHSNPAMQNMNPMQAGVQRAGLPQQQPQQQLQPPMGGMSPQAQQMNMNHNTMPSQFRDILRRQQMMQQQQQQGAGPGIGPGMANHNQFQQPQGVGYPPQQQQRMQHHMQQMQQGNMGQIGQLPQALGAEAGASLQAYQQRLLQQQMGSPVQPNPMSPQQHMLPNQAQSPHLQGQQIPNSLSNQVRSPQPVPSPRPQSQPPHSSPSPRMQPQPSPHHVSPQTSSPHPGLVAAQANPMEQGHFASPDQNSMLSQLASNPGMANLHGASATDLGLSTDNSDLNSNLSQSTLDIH

## O=c1oc2c(O)c(O)cc3c(=O)oc4c(O)c(O)cc1c4c23 [LTK20, (2,3,7,8-TETRAHYDROXY[1]BENZOPYRANO [5,4,3(DE)[1]BENZOPYRAN 5,10-DIONE)]
[1]; HeLa core histones as substrate, both filterbinding and fluorography assays
  IC50: 20 µM
[1]; [10]
  Effect on CARM1 activity (filterbinding assay): inhibits CARM1 activity
[1]; fluorography
  Effect on CARM1 activity (gel assay, fluorography): inhibits CARM1 activity
[2]; [10]
  Effect on G9a activity (filterbinding assay): does not act on other enzymes
[2]; fluorography
  Effect on G9a activity (gel assay, fluorography): does not act on other enzymes
[3]; filterbinding
  Effect on p300 activity (filterbinding assay): does not act on other enzymes
[3]; fluorography
  Effect on p300 activity (gel assay, fluorography): does not act on other enzymes
[4]; filterbinding
  Effect on PCAF activity (filterbinding assay): does not act on other enzymes
[4]; fluorography
  Effect on PCAF activity (gel assay, fluorography): does not act on other enzymes
CARM1 [5]
  Pattern of CARM1 methylation inhibition: uncompetitive
Histone H3
  Binding to histone H3 (ITC): fits to the two sequential binding site model
Histone H3; listed as (2,3,7,8TETRAHYDROXY[1]BENZOPYRANO[5,4,3(DE)[1]BENZOPYRAN5,10-DIONE)
  Binding to histone H3 (ITC): binds to the substrate at two sequential binding sites
CARM1 [6]
  Binding to CARM1 (ITC): no binding of the molecule to the enzyme
[7]
  Methylation of H3R17: inhibited
  Methylation of H3R26: getting methylated
[7]; [11]
  Methylation of H3R17: Site-specific inhibition of H3R17
[8]
  Methylation of H3R26: getting methylated
  Methylation of H3R17: inhibited
[8]; [11]
  Methylation of H3R17: Site-specific inhibition of H3R17
[9]
  Methylation of H3R17: Site-specific inhibition of H3R17
U2OS cells; U2OS cells
  Apoptosis: no apoptosis
U2OS cells; U2OS, 50 μM, 24 hours
  p53 levels: altered
U2OS cells; 24 hours
  p21 levels: increase
U2OS cells; 24 hours, listed as (2,3,7,8-TETRAHYDROXY[1]BENZOPYRANO[5,4,3(DE)[1]BENZOPYRAN5,10-DIONE)
  p21 levels: increase in p21 levels
